Entries after “also recorded” stand apart in the source; their conditions may differ. Numbered stars: 1 amine (or outer) side, 2 acyl side, 3 side chain; on linkers, the order of the positions; unused ones are H or OH. Bridge positions count the residues as written; N and C are the ends. Square brackets hold non-standard residues; d marks the D form. code # = α,α-bis(4′-pentenyl)glycine, C=CCCCC(CCCC=C)(N[*:1])C(=O)[*:2]; R8 = C=CCCCCCC[C@@](C)(N)C(=O)O; S8 = C=CCCCCCC[C@](C)(N)C(=O)O; Aib = CC(C)(N)C(=O)O
Columns and labels:
human GLP-1 receptor = human GLP-1 receptor (Homo sapiens, UniProt P43220); conditions: GFP-GLP-1R U2OS cells; FIG. 6A, 6B (lower dose-range 1 µM, 100 nM, 10 nM)
proteinase K = target: T1, proteinase K (Parengyodontium album, UniProt P06873); assay type: in vitro ADME
T1 construct: purchased New England Biolabs

[1] = mouse
Protocol: Plasma Stability Testing. Peptide stability was tested in freshly drawn mouse plasma collected in lithium heparin tubes. Peptide plasma incubations were set up with 500 µL of plasma spiked with 10 µM of the individual peptides. Samples were gently shaken in an orbital shaker at 37° C., and 20 µL aliquots were removed at 0, 5, 15, 30, 60, 120, and 200 minutes and added to 150 µL of a mixture containing 50% water/50% acetonitrile to stop further degradation of the peptides. The samples were allowed to sit on ice for the duration of the assay and then transferred to a MultiScreen Solvinert 0.45 µm low-binding hydrophilic PTFE plate (Millipore). The filtrate was directly analyzed by LC/MS/MS using a Thermo BetaSil column, 2.1 × 50 mm, 5 µm. […] The percentage of remaining peptide was determined by the decrease in chromatographic peak area and log transformed to calculate the half-life.

B6 mice = experiment: Glucose tolerance test in fasted mice; assay type: in vivo, mouse; conditions: 10 nmol/kg IP, glucose 2 g/kg IP 30 minutes later
Protocol: To evaluate whether the relative proteolytic stability of SAH-GLP-1(16,23,30) translated into a functional benefit in vivo, glucose tolerance tests in mice were performed. Mice (n=8 per arm) were fasted overnight and administered the corresponding panel of peptides at 10 nmol/kg intraperitoneally followed by a glucose bolus (2 g/kg) 30 minutes later, and then serial serum glucose monitoring was performed over time.
In vivo efficacy testing of SAH-GLP-1 peptides. Male B6 and db/db mice (JAX 000697) at 10-12 weeks of age were housed (5 mice/cage) at a constant room temperature of 24° C. on a normal day-light cycle and provided a standard diet ad libitum. After one week of acclimatization, B6 mice (n=8 per treatment arm) were fasted for 16 hours overnight and the following morning baseline blood glucose levels were measured (Onetouch), followed by intraperitoneal (IP) injection of vehicle (saline) or the indicated peptide (10 nmol/kg). Thirty minutes later, the mice were treated with a bolus IP injection of glucose (2 g/kg, 20% aqueous solution), followed by serial blood glucose monitoring at 0, 15, 30, 60, and 120 minutes. To evaluate the comparative anti-hyperglycemic effects of peptides in db/db mice (n=8 per treatment arm), vehicle (saline) or the indicated peptide (10 nmol/kg) was injected IP and blood glucose levels monitored at 0, 15, 30, 60, and 720 minutes.

[2] = target: GLP-1R expressed on CHO-K1 cells (cAMP Hunter eXpress GLP1R CHO-K1 GPCR Assay, Eurofins, 95-0062E2CP2S) (UniProt P43220 24-463); experiment: cell-based or functional assay

T1 sequence (P06873 106-384): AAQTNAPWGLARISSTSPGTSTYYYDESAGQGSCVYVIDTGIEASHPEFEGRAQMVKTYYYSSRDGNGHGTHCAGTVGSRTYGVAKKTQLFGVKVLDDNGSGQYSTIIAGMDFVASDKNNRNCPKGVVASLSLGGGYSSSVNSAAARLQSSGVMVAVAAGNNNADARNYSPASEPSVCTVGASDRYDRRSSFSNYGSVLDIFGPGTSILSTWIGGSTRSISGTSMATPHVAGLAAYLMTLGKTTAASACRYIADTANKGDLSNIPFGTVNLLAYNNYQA
Chain of human GLP-1 receptor (P43220 24-463): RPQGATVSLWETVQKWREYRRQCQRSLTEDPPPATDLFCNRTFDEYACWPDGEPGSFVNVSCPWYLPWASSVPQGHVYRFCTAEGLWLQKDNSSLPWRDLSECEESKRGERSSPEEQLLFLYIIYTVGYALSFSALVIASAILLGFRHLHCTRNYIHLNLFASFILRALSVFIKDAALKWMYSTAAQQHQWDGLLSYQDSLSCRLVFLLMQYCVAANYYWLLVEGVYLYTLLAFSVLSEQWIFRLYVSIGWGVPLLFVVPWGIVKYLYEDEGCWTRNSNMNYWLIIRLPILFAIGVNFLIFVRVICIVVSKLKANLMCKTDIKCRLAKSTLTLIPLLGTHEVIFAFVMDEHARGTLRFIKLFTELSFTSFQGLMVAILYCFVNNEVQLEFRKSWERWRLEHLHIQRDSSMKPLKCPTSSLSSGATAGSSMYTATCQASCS

Molecule: HGEGTFTSD8SSYLEG#AAKEFIZWLVKGR (H-HGEGTFTSD[R8]SSYLEG[code #]AAKEFI[S8]WLVKGR-NH2; staple 10-17, 17-24) [SAH-GLP-1(A8G)(16,23,30)]
- GLP-1R internalization activity compared with the corresponding unstapled / wild-type GLP-1 peptide (human GLP-1 receptor): more active

Molecule: CC[C@H](C)[C@@H]1NC(=O)[C@H](Cc2ccccc2)NC(=O)[C@H](CCC(=O)O)NC(=O)[C@H](CCCCN)NC(=O)[C@H](C)NC(=O)[C@H](C)NC(=O)C2(CCCC=CCCCCCC[C@@](C)(NC(=O)[C@H](CC(=O)O)NC(=O)[C@H](CO)NC(=O)[C@@H](NC(=O)[C@H](Cc3ccccc3)NC(=O)[C@@H](NC(=O)CNC(=O)[C@H](CCC(=O)O)NC(=O)C(C)(C)NC(=O)[C@@H](N)Cc3c[nH]cn3)[C@@H](C)O)[C@@H](C)O)C(=O)N[C@@H](CO)C(=O)N[C@@H](CO)C(=O)N[C@@H](Cc3ccc(O)cc3)C(=O)N[C@@H](CC(C)C)C(=O)N[C@@H](CCC(=O)O)C(=O)NCC(=O)N2)CCCC=CCCCCCC[C@@](C)(C(=O)N[C@@H](Cc2c[nH]c3ccccc23)C(=O)N[C@@H](CC(C)C)C(=O)N[C@H](C(=O)N[C@@H](CCCCN)C(=O)NCC(=O)N[C@@H](CCCNC(=N)N)C(N)=O)C(C)C)NC1=O (stereo partly drawn) [SAH-GLP-1(16,23,30), HJEGTFTSD8SSYLEG#AAKEFIZWLVKGR]
- improvement of proteinase K half-life compared to the singly stapled peptides (proteinase K): 2-7 fold
- improvement of proteinase K half-life compared to wild-type / control peptide (proteinase K): over 20 fold
- half-life (proteinase K; proteinase K, 50 mM Tris-HCl, pH 7.4, peptides have the A8Aib substitution, read-out: t½ (half-life), proteinase K digestion, intact peptide by LCMS): 3.67 h
- plasma half-life relative to semaglutide [1]: nearly double
- half-life ([1]; plasma): 5.33 h

Molecule: CC[C@H](C)[C@H](NC(=O)[C@H](Cc1ccccc1)NC(=O)[C@H](CCC(=O)O)NC(=O)[C@H](CCCCNC(=O)COCCOCCNC(=O)COCCOCCNC(=O)CC[C@H](NC(=O)CCCCCCCCCCCCCCCCC(=O)O)C(=O)O)NC(=O)[C@H](C)NC(=O)[C@H](C)NC(=O)[C@H](CCC(N)=O)NC(=O)CNC(=O)[C@H](CCC(=O)O)NC(=O)[C@H](CC(C)C)NC(=O)[C@H](Cc1ccc(O)cc1)NC(=O)[C@H](CO)NC(=O)[C@H](CO)NC(=O)[C@@H](NC(=O)[C@H](CC(=O)O)NC(=O)[C@H](CO)NC(=O)[C@@H](NC(=O)[C@H](Cc1ccccc1)NC(=O)[C@@H](NC(=O)CNC(=O)[C@H](CCC(=O)O)NC(=O)C(C)(C)NC(=O)[C@@H](N)Cc1cnc[nH]1)[C@@H](C)O)[C@@H](C)O)C(C)C)C(=O)N[C@@H](C)C(=O)N[C@@H](Cc1c[nH]c2ccccc12)C(=O)N[C@@H](CC(C)C)C(=O)N[C@H](C(=O)N[C@@H](CCCNC(=N)N)C(=O)NCC(=O)N[C@@H](CCCNC(=N)N)C(=O)NCC(=O)O)C(C)C [semaglutide, reference compound]
- proteolysis by proteinase K (in words) (proteinase K; identical conditions as FIG. 7A, FIG. 7B): rapidly proteolyzed; also recorded: rapid proteolysis

Molecule: CC[C@H](C)[C@H](NC(=O)[C@H](Cc1ccccc1)NC(=O)[C@H](CCC(=O)O)NC(=O)[C@H](CCCCN)NC(=O)[C@H](C)NC(=O)[C@H](C)NC(=O)[C@H](CCC(N)=O)NC(=O)CNC(=O)[C@H](CCC(=O)O)NC(=O)[C@H](CC(C)C)NC(=O)[C@H](Cc1ccc(O)cc1)NC(=O)[C@H](CO)NC(=O)[C@H](CO)NC(=O)[C@@H](NC(=O)[C@H](CC(=O)O)NC(=O)[C@H](CO)NC(=O)[C@@H](NC(=O)[C@H](Cc1ccccc1)NC(=O)[C@@H](NC(=O)CNC(=O)[C@H](CCC(=O)O)NC(=O)[C@H](C)NC(=O)[C@@H](N)Cc1c[nH]cn1)[C@@H](C)O)[C@@H](C)O)C(C)C)C(=O)N[C@@H](C)C(=O)N[C@@H](Cc1c[nH]c2ccccc12)C(=O)N[C@@H](CC(C)C)C(=O)N[C@H](C(=O)N[C@@H](CCCCN)C(=O)NCC(=O)N[C@@H](CCCNC(=N)N)C(N)=O)C(C)C [GLP-1]
- control of induced hyperglycemia in glucose tolerance test (B6 mice): least effective

Molecule: H-H[Aib]EGTFTSD[R8]SSYLEG[code #]AAKEFI[S8]WLVKGR-NH2 (staple 10-17, 17-24) [SAH-GLP-1(16,23,30) A8J]
- cAMP induction (cAMP Hunter eXpress luminescence assay), EC50 [2]: 0.16 nM

Source: patent US20230183309A1 (Dana-Farber Cancer Institute, Inc., priority 2019, published 2023)
